Residue numbers refer to the chain shown, from its start. Entries after “also recorded” stand apart in the source; their conditions may differ.
Assays:
[1] = target: T1, V120A (BminOBP3-V120A mutant) (Bactrocera minax, UniProt A0A3G2LEF2, V113A); experiment: Fluorescence competitive binding assay (1-NPN displacement by undecanol), V120A mutant; conditions: undecanol up to 36 μM
T1 sequence (A0A3G2LEF2 27-115 V113A): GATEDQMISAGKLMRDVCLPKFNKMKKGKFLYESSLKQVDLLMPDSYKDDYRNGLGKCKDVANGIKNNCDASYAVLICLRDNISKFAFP
Procedure: (§1) In order to explore the binding affinities of BminOBP3 and its mutants to undecanol, the binding assays were conducted on a fluorescence spectrophotometer (F-7000; Hitachi, Japan) with parameters set same as the previous study. The fluorescent probe 1-NPN and undecanol were diluted in the HPLC methanol to 1 mM, whereas the protein samples were dissolved in 20 mM Tris-HCL pH 7.4 to obtain 2 μM protein solutions.
(§2) To measure the dissociation constant (Kd) of 1-NPN to BminOBP3 and mutants, aliquots of 1 mM 1-NPN were added to the 2 μM protein solution with a final concentration of 1-NPN ranging from 0 to 22 μM, and the resulting fluorescence intensity values of the maximum fluorescence emission were recorded for the construction of binding curves and Scatchard plots. Bound 1-NPN was determined by fluorescence intensities with the assumption that the protein was 100% active, and it binds the ligands at a 1:1 stoichiometric ratio when saturated. […] The maximal fluorescence intensity values were plotted against undecanol concentrations. The inhibition constant (Ki) of each protein was calculated based on the following equation: Ki = [IC50]/(1 + [1-NPN]/K1-NPN). IC50 is the concentration of ligand halving initial fluorescence intensity; [1-NPN] is the free concentration of 1-NPN; and K1-NPN is the dissociation constant of the protein/1-NPN complex. […]

[2] = test system: T57A (BminOBP3-T57A mutant); experiment: Fluorescence binding assay with undecanol, T57A mutant; set-up: species or system Bactrocera minax; conditions: Figure S7 and Table S2
Procedure: as §1
as §2, with “[1-NPN]/K1-NPN).” for “[1-NPN]/K1-NPN). IC50 is the concentration of ligand halving initial fluorescence intensity; [1-NPN] is the free concentration of 1-NPN; and K1-NPN is the dissociation constant of the protein/1-NPN complex.”
(§3) (the information regarding 13 ligands see Supplemental Data Table S4). […] Conformation 3 was an effective conformation, which is shown in Figure 2A, as it was validated by subsequent mutagenesis studies and fluorescence binding assays. […]

[3] = target: T2, BminOBP3 (wild-type protein) (Bactrocera minax, UniProt A0A3G2LEF2); set-up: method as in PMID 34668560; conditions: competitive fluorescence binding experiments of previous study; cited from earlier work
T2 sequence (A0A3G2LEF2 27-115): T1 sequence (A0A3G2LEF2 27-115 V113A) with A87V

[4] = target: T2, BminOBP3 (wild-type protein); experiment: Fluorescence competitive binding assay (1-NPN displacement by undecanol), wild-type protein; conditions: pH 5.0 compared with pH 7.4; Figure S8 and Table S3
Procedure: as §1, §2

[5] = target: T3, 3D2a (mutant that lacks F121 and P122 from the C-terminus of BminOBP3) (Bactrocera minax, UniProt A0A3G2LEF2); experiment: Fluorescence competitive binding assay (1-NPN displacement by undecanol), 3D2a mutant; conditions: undecanol up to 36 μM
T3 sequence (A0A3G2LEF2 27-113): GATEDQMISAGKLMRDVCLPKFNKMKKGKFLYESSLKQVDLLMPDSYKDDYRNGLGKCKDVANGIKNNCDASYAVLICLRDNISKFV
Procedure: as §1, §2

[6] = test system: Y84A (BminOBP3-Y84A mutant); experiment: Fluorescence binding assay with undecanol, Y84A mutant; set-up: species or system Bactrocera minax; conditions: Figure S7 and Table S2
Procedure: as §1
as §2, with “[1-NPN]/K1-NPN).” for “[1-NPN]/K1-NPN). IC50 is the concentration of ligand halving initial fluorescence intensity; [1-NPN] is the free concentration of 1-NPN; and K1-NPN is the dissociation constant of the protein/1-NPN complex.”
as §3

[7] = target: T4, T-OBP3 (mutant that lacks I116-P122 from the C-terminus of BminOBP3) (Bactrocera minax, UniProt A0A3G2LEF2); experiment: Fluorescence competitive binding assay (1-NPN displacement by undecanol), C-terminus truncated mutant; conditions: compared with wild-type protein
T4 sequence (A0A3G2LEF2 27-108): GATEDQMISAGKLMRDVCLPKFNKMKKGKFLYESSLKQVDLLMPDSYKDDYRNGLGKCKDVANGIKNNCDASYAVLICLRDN
Procedure: as §1, §2

CCCCCCCCCCCO [undecanol, 1-undecanol]
binding to undecanol (in words) [1]: completely abolished; also recorded: completely lost their binding capacity | affinity to undecanol compared with the wild-type protein (in words) [2]: obvious increase | binding affinity of BminOBP3 among 13 ligands tested (in words) [3]: strong binding affinity | affinity between BminOBP3 and undecanol at acidic pH (in words) [4]: significant decrease | binding to undecanol (in words) [5]: completely abolished; also recorded: completely lost their binding capacity | affinity to undecanol compared with the wild-type protein (in words) [6]: obvious increase | affinity for undecanol compared with BminOBP3 (in words) [7]: significant decrease

Source: publication PMC10531759, “Key Amino Acid Residues Involved in Binding Interactions between Bactrocera minax Odorant-Binding Protein 3 (BminOBP3) and Undecanol” (Insects, 2023)
